Test results: PubChem BioAssay AID1963420 (Molecular Pharmacology Branch, DTP, NCI, 2024)

System: 494315-158-R-J1-PDC complex spheroid growth, percent test/control
Assay: Anticancer human tumor 494315-158-R-J1-PDC patient-derived soft tissue sarcoma cell line growth inhibition [Asc]
Details: for IC50: curve of first compound; for viability, T/C: stronger effect = lower value
Method in brief: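 Tumor cells were grown as complex spheroids with human endothelial cells (HUVEC) and human mesenchymal stem cells as stroma. Agents were tested alone and in combination, in half-log steps down from the clinical Cmax, or from 10 microM where Cmax was unknown.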

[1] = second compound 0.03 µM, first compound 0.0316 µM
[2] = second compound 0.03 µM, first compound 0.1 µM
[3] = second compound 0.03 µM, first compound 0.316 µM
[4] = second compound 0.03 µM, first compound 1 µM
[5] = second compound 0.03 µM, first compound 3.16 µM
[6] = second compound 0.03 µM, first compound 10 µM
[7] = second compound 0.0949 µM, first compound 0.0316 µM
[8] = second compound 0.0949 µM, first compound 0.1 µM
[9] = second compound 0.0949 µM, first compound 0.316 µM
[10] = second compound 0.0949 µM, first compound 1 µM
[11] = second compound 0.0949 µM, first compound 3.16 µM
[12] = second compound 0.0949 µM, first compound 10 µM
[13] = second compound 0.3 µM, first compound 0.0316 µM
[14] = second compound 0.3 µM, first compound 0.1 µM
[15] = second compound 0.3 µM, first compound 0.316 µM
[16] = second compound 0.3 µM, first compound 1 µM
[17] = second compound 0.3 µM, first compound 3.16 µM
[18] = second compound 0.3 µM, first compound 10 µM
[19] = second compound 0.949 µM, first compound 0.0316 µM
[20] = second compound 0.949 µM, first compound 0.1 µM
[21] = second compound 0.949 µM, first compound 0.316 µM
[22] = second compound 0.949 µM, first compound 1 µM
[23] = second compound 0.949 µM, first compound 3.16 µM
[24] = second compound 0.949 µM, first compound 10 µM
[25] = second compound 3 µM, first compound 0.0316 µM
[26] = second compound 3 µM, first compound 0.1 µM
[27] = second compound 3 µM, first compound 0.316 µM
[28] = second compound 3 µM, first compound 1 µM
[29] = second compound 3 µM, first compound 3.16 µM
[30] = second compound 3 µM, first compound 10 µM
[31] = second compound 0.03 µM, first compound 0.00316 µM
[32] = second compound 0.03 µM, first compound 0.01 µM
[33] = second compound 0.0949 µM, first compound 0.00316 µM
[34] = second compound 0.0949 µM, first compound 0.01 µM
[35] = second compound 0.3 µM, first compound 0.00316 µM
[36] = second compound 0.3 µM, first compound 0.01 µM
[37] = second compound 0.949 µM, first compound 0.00316 µM
[38] = second compound 0.949 µM, first compound 0.01 µM
[39] = second compound 3 µM, first compound 0.00316 µM
[40] = second compound 3 µM, first compound 0.01 µM
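Note: compound exposure lasted seven days after spheroids formed for three days.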

Compound	IC50 (second compound 0.03 µM) [µM]	IC50 (second compound 0.0949 µM) [µM]	IC50 (second compound 0.3 µM) [µM]	IC50 (second compound 0.949 µM) [µM]	IC50 (second compound 3 µM) [µM]	viability, T/C [1] [%]	viability, T/C [2] [%]	viability, T/C [3] [%]	viability, T/C [4] [%]	viability, T/C [7] [%]	viability, T/C [8] [%]	viability, T/C [9] [%]	viability, T/C [10] [%]	viability, T/C [13] [%]	viability, T/C [14] [%]	viability, T/C [15] [%]	viability, T/C [19] [%]	viability, T/C [20] [%]	viability, T/C [25] [%]	viability, T/C [26] [%]	also measured
C=C(F)C(=O)N1CCN(c2nc(OCC3CCCN3C)nc3c2CCN(c2cccc4cccc(Cl)c24)C3)CC1CC#N (stereo not given) + CCN1C(C(=O)NC23CCC(C(=O)O)(CC2)CC3)C(c2cccc(Cl)c2F)C2(C(=O)Nc3cc(Cl)ccc32)C12CCCCC2	4.19	3.18	3.8	4.17	4.11	106	103	105	118	99.9	101	93.2	95.2	110	93	80.3	87.1	109	96.7	102	viability, T/C [5]: 66%; viability, T/C [6]: 0.19%; viability, T/C [11]: 50.2%; viability, T/C [12]: 0.16%; viability, T/C [16]: 111%; viability, T/C [17]: 59.5%; viability, T/C [18]: 0.19%; viability, T/C [21]: 95.9%; viability, T/C [22]: 76.7%; viability, T/C [23]: 70%; viability, T/C [24]: 0.2%; viability, T/C [27]: 100%; viability, T/C [28]: 87.2%; viability, T/C [29]: 65.6%; viability, T/C [30]: 0.27%
C=CC(=O)N1CCN(c2nc(=O)n(-c3c(C)ccnc3C(C)C)c3nc(-c4c(O)cccc4F)c(F)cc23)C(C)C1 (stereo not given) + CCN1C(C(=O)NC23CCC(C(=O)O)(CC2)CC3)C(c2cccc(Cl)c2F)C2(C(=O)Nc3cc(Cl)ccc32)C12CCCCC2	> 10	> 10	> 10	> 10	> 10	111	97.2	119	128	90.4	96.8	96.3	110	97.6	119	111	85.5	114	102	96.9	viability, T/C [5]: 128%; viability, T/C [6]: 104%; viability, T/C [11]: 92.8%; viability, T/C [12]: 99.9%; viability, T/C [16]: 119%; viability, T/C [17]: 114%; viability, T/C [18]: 117%; viability, T/C [21]: 106%; viability, T/C [22]: 108%; viability, T/C [23]: 130%; viability, T/C [24]: 110%; viability, T/C [27]: 97.9%; viability, T/C [28]: 113%; viability, T/C [29]: 126%; viability, T/C [30]: 104%
COc1c(OCCCN2CCOCC2)ccc2c3n(c(=NC(=O)c4cnc(N)nc4)nc12)CCN3 + CCN1C(C(=O)NC23CCC(C(=O)O)(CC2)CC3)C(c2cccc(Cl)c2F)C2(C(=O)Nc3cc(Cl)ccc32)C12CCCCC2	0.0458	0.039	0.0436	0.0356	0.0462	58.5	30.8	20.5	15.4	54	30.4	22	15.4	49.9	38	22.3	50.6	30.7	59.6	32.1	viability, T/C [31]: 84%; viability, T/C [32]: 80.5%; viability, T/C [33]: 78.7%; viability, T/C [34]: 73.7%; viability, T/C [35]: 91.2%; viability, T/C [36]: 90.4%; viability, T/C [16]: 16.7%; viability, T/C [37]: 93.3%; viability, T/C [38]: 81.6%; viability, T/C [21]: 19.2%; viability, T/C [22]: 16.4%; viability, T/C [39]: 112%; viability, T/C [40]: 86.5%; viability, T/C [27]: 22.6%; viability, T/C [28]: 15.2%
NC1CCC(NC2CC2c2ccccc2)CC1 (stereo not given) + CCN1C(C(=O)NC23CCC(C(=O)O)(CC2)CC3)C(c2cccc(Cl)c2F)C2(C(=O)Nc3cc(Cl)ccc32)C12CCCCC2	> 0.1	> 0.1	> 0.1	> 0.1	> 0.1	112	97.9	–	–	92.5	95	–	–	96.5	82.2	–	90.9	92.1	83.6	96.6	viability, T/C (second compound 0.03 µM, first compound 0.000316 µM): 95.8%; viability, T/C (second compound 0.03 µM, first compound 0.001 µM): 95.3%; viability, T/C [31]: 89.8%; viability, T/C [32]: 85.2%; viability, T/C (second compound 0.0949 µM, first compound 0.000316 µM): 99.7%; viability, T/C (second compound 0.0949 µM, first compound 0.001 µM): 93.4%; viability, T/C [33]: 99%; viability, T/C [34]: 104%; viability, T/C (second compound 0.3 µM, first compound 0.000316 µM): 96.6%; viability, T/C (second compound 0.3 µM, first compound 0.001 µM): 91.3%; viability, T/C [35]: 94.7%; viability, T/C [36]: 88.7%; viability, T/C (second compound 0.949 µM, first compound 0.000316 µM): 91%; viability, T/C (second compound 0.949 µM, first compound 0.001 µM): 91.5%; viability, T/C [37]: 85.7%; viability, T/C [38]: 87.5%; viability, T/C (second compound 3 µM, first compound 0.000316 µM): 98.3%; viability, T/C (second compound 3 µM, first compound 0.001 µM): 98%; viability, T/C [39]: 93.7%; viability, T/C [40]: 91%
